Where “and” joins values, the source holds several entries; their conditions need not be identical. Identical values can stand only once.
Columns and labels:
Experiment in all cases: biochemical
Format in all cases: biochemical
various kinases [1] = target: various kinases (Homo sapiens, UniProt P42679); settings: MATK (HYL)
various kinases [2] = target: various kinases (Homo sapiens, UniProt Q6DT37); settings: CDC42 BPG (MRCKG)
various kinases [3] = target: various kinases (Homo sapiens, UniProt P36507); settings: MAP2K2 (MEK2)
various kinases [4] = target: various kinases (Homo sapiens, UniProt P23443); settings: kinase RPS6KB1 (p70S6K); ZLYTE
various kinases [5] = target: various kinases (Homo sapiens, UniProt P43250); settings: GRK6
various kinases [6] = target: various kinases (Homo sapiens, UniProt Q52WX2); settings: kinase SBK1; ZLYTE
various kinases [7] = target: various kinases (Homo sapiens, UniProt Q7KZI7); settings: MARK2
various kinases [8] = target: various kinases (Homo sapiens, UniProt P41279); settings: MAP3K8 (COT)
various kinases [9] = target: various kinases (Homo sapiens, UniProt Q14289); settings: kinase PTK2B (FAK2); ZLYTE
various kinases [10] = target: various kinases (Homo sapiens, UniProt P48730); settings: CSNK1D (CK1 delta)
various kinases [11] = target: various kinases (Homo sapiens, UniProt Q9Y5S2); settings: CDC42 BPB (MRCKB)
various kinases [12] = target: various kinases (Homo sapiens, UniProt P00533, C797S/L858R/T790M); settings: EGFR (ErbB1) T790M C797S L858R
various kinases [13] = target: various kinases (Homo sapiens, UniProt P27361); settings: MAPK3 (ERK1)
various kinases [14] = target: various kinases (Homo sapiens, UniProt P49674, R178C); settings: CSNK1E (CK1 epsilon) R178C
various kinases [15] = target: various kinases (Homo sapiens, UniProt Q05655); settings: kinase PRKCD (PKC delta); ZLYTE
various kinases [16] = target: various kinases (Homo sapiens, UniProt P17612); settings: kinase PRKACA (PKA); ZLYTE
various kinases [17] = target: various kinases (Homo sapiens, UniProt P08581, M1250T); settings: MET M1250T
various kinases [18] = target: various kinases (Homo sapiens, UniProt P06493); settings: CDK1/cyclin B
various kinases [19] = target: various kinases (Homo sapiens, UniProt Q06187); settings: BTK
various kinases [20] = target: various kinases (Homo sapiens, UniProt Q9H2X6); settings: HIPK2
various kinases [21] = target: various kinases (Homo sapiens, UniProt Q16566); settings: CAMK4 (CaMKIV)
various kinases [22] = target: T1, various kinases (Homo sapiens, UniProt Q96PF2); settings: kinase STK22B (TSSK2); ZLYTE
T1 sequence (Q96PF2 1-358): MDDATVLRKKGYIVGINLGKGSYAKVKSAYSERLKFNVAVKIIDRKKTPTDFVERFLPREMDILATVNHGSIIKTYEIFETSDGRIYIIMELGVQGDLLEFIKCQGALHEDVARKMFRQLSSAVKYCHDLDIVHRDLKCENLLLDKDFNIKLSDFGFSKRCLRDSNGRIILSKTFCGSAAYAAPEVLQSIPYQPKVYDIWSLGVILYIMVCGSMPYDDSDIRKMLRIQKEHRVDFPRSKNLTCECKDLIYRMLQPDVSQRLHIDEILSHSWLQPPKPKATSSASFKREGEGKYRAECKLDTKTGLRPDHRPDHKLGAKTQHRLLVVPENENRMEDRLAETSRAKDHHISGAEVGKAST

various kinases [23] = target: various kinases (Homo sapiens, UniProt P30530); settings: AXL
various kinases [24] = target: various kinases (Homo sapiens, UniProt P54762); settings: EPHB1
various kinases [25] = target: various kinases (Homo sapiens, UniProt Q96NX5); settings: CAMK1G (CAMKI gamma)
various kinases [26] = target: various kinases (Homo sapiens, UniProt O14757); settings: CHEK1 (CHK1)
various kinases [27] = target: various kinases (Homo sapiens, UniProt Q9P0L2); settings: MARK1 (MARK)
various kinases [28] = target: various kinases (Homo sapiens, UniProt Q9H792); settings: PEAK1
various kinases [29] = target: various kinases (Homo sapiens, UniProt Q13131)
various kinases [30] = target: various kinases (Homo sapiens, UniProt Q8TD19); settings: NEK9
various kinases [31] = target: various kinases (Homo sapiens, UniProt P52564); settings: MAP2K6 (MKK6)
various kinases [32] = target: various kinases (Homo sapiens, UniProt O96013); settings: PAK4
Throughout, for % Inhibition Average: test concentration or dose not given here.
Throughout, for % Inhibition Duplicate #1: test concentration or dose not given here.
Throughout, for % Inhibition Duplicate #2: test concentration or dose not given here.

Sequence of various kinases (Homo sapiens, UniProt P23443) (P23443 whole entry): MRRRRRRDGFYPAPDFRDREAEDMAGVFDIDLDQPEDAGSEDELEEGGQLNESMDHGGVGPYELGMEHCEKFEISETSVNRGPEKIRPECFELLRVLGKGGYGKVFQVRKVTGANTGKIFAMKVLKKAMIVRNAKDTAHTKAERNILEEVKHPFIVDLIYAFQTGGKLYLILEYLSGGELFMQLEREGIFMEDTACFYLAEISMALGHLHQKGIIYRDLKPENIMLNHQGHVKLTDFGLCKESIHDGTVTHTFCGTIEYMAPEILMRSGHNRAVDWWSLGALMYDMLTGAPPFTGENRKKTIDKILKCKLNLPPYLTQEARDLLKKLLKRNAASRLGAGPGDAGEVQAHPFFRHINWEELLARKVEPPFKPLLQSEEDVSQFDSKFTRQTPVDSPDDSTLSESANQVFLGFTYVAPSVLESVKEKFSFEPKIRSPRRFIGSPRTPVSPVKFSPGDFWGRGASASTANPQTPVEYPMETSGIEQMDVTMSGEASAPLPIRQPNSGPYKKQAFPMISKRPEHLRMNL
Sequence of various kinases (Homo sapiens, UniProt Q13131) (Q13131 whole entry): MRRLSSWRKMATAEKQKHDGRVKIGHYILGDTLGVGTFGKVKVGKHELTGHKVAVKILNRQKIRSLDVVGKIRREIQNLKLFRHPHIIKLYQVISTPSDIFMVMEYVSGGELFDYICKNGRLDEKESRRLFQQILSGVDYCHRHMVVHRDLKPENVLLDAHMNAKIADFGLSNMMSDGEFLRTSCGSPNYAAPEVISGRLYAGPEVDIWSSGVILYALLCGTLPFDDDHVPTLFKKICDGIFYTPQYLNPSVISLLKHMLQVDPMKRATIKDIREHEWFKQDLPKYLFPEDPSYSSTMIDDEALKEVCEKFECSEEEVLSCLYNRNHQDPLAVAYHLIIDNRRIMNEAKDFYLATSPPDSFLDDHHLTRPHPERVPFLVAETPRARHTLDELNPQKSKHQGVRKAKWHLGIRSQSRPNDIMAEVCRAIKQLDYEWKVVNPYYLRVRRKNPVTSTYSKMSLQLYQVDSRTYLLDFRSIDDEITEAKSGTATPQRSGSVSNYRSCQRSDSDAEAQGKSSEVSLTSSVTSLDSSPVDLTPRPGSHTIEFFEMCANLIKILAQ
Sequence of various kinases (Homo sapiens, UniProt Q52WX2) (Q52WX2 whole entry): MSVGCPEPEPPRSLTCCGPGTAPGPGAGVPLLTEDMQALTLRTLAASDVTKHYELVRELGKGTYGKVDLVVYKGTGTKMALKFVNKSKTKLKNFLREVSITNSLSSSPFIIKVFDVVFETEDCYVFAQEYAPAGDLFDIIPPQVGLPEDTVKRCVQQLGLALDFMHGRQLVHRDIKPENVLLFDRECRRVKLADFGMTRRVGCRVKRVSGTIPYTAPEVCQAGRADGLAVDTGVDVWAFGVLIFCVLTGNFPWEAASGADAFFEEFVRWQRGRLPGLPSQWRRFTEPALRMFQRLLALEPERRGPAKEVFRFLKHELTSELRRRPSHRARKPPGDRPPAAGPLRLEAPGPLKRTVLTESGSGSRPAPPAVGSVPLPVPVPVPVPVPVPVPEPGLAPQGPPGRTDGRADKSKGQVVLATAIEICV
Sequence of various kinases (Homo sapiens, UniProt Q05655) (Q05655 whole entry): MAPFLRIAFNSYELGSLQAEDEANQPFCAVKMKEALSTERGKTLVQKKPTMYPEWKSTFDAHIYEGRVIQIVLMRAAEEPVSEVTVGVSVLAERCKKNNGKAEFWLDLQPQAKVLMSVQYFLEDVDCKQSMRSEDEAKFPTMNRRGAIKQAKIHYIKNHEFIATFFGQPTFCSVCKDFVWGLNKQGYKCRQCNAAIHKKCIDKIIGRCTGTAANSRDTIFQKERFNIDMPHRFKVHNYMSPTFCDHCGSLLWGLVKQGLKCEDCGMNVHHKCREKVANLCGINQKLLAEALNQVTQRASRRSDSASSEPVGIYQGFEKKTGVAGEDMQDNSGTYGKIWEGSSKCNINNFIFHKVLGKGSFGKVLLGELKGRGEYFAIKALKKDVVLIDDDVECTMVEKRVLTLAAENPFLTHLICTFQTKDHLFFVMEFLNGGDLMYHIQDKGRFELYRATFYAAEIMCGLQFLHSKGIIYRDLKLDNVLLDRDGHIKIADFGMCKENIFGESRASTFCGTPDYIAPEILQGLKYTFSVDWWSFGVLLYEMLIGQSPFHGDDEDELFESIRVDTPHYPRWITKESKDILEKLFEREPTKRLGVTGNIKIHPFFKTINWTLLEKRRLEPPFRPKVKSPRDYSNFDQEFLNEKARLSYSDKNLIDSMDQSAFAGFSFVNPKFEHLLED
Sequence of various kinases (Homo sapiens, UniProt Q14289) (Q14289 whole entry): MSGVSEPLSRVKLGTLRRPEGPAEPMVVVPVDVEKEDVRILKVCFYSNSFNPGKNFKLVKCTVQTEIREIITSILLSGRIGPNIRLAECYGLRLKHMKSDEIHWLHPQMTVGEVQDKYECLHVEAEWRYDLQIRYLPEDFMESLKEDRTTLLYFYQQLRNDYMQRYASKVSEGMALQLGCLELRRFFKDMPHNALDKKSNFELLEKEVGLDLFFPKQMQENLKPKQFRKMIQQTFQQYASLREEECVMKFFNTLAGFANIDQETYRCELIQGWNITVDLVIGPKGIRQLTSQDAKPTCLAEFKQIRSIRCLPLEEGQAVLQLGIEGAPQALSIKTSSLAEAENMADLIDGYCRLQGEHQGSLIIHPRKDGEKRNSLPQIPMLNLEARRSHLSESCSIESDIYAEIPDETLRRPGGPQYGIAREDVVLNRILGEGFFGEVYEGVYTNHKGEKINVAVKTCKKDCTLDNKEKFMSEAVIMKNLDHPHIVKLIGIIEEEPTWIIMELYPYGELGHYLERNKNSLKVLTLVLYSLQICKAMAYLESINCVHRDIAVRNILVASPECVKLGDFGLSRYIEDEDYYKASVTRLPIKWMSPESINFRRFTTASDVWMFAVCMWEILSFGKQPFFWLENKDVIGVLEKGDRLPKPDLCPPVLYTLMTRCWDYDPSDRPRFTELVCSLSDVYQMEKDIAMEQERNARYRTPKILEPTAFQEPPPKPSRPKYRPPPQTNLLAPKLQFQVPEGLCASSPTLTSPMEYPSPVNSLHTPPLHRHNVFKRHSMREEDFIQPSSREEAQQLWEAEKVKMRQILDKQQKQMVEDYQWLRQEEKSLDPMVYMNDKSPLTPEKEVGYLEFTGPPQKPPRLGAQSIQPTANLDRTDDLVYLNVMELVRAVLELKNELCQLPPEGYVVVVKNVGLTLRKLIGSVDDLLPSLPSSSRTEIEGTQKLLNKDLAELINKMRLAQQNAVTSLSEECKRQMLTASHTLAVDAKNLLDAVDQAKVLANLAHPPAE
Sequence of various kinases (Homo sapiens, UniProt Q06187) (Q06187 whole entry): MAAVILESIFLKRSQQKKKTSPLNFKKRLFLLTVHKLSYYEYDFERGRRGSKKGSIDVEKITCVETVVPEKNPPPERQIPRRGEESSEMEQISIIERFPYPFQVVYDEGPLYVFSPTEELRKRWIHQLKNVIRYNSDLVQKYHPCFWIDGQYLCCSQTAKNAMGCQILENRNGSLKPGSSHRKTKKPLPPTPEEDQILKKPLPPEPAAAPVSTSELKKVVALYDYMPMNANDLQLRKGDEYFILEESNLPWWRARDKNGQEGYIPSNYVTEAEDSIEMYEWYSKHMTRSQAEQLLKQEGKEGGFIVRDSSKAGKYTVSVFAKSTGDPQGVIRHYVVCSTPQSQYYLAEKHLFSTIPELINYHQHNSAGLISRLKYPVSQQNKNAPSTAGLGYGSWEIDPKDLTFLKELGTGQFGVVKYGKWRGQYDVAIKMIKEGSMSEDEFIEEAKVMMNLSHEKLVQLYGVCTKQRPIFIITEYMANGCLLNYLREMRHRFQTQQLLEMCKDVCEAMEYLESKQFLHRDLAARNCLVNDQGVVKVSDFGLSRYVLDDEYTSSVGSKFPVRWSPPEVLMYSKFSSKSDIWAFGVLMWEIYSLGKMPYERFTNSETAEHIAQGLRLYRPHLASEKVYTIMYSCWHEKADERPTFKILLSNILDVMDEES
Sequence of various kinases (Homo sapiens, UniProt Q9P0L2) (Q9P0L2 whole entry): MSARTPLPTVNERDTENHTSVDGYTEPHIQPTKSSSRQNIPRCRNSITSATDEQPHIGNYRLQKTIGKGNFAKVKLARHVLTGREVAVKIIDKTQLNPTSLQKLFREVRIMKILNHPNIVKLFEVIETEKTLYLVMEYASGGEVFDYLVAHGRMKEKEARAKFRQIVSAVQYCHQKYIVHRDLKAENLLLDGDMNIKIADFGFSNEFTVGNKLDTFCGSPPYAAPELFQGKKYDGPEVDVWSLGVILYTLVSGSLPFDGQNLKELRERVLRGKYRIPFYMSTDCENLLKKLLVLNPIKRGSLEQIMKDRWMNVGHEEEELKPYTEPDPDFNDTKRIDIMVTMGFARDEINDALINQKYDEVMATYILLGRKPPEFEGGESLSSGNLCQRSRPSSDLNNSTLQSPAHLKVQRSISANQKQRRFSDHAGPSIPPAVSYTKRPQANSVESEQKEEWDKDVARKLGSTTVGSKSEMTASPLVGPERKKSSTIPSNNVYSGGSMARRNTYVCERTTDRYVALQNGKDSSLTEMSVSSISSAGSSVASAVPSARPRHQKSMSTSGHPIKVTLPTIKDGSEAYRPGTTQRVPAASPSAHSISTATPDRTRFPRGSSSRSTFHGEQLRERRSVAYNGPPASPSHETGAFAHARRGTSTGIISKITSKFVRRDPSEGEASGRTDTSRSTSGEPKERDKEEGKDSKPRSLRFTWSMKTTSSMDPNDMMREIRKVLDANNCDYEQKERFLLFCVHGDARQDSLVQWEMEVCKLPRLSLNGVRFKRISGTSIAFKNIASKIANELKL
Sequence of various kinases (Homo sapiens, UniProt P52564) (P52564 whole entry): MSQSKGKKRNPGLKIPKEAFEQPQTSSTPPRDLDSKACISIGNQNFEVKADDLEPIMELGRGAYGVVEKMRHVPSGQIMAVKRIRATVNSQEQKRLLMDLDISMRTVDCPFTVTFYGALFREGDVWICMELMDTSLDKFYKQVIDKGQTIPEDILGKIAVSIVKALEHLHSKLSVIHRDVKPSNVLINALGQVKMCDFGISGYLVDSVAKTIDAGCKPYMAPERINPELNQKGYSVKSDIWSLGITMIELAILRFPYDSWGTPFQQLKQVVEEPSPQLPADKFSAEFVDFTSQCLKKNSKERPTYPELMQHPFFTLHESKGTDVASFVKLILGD

For COc1ccc2c(c1)[C@]1(C[C@H]1c1ccc3c(/C=C/c4ccc(CN5C[C@@H](C)O[C@@H](C)C5)cc4)n[nH]c3c1)C(=O)N2 [CFI-400945], the “% Inhibition” value (various kinases [1]) was 6% and 4%, the “% Inhibition” value (various kinases [2]) was 0% and -1% and the “% Inhibition” value (various kinases [3]) was 7%. The “% Inhibition Average” value (various kinases [4]) was 7%, the “% Inhibition Duplicate #1” value (various kinases [4]) was 6% and the “% Inhibition Duplicate #2” value (various kinases [4]) was 8%. For the same compound, the “% Inhibition” value (various kinases [5]) was 5%, the “% Inhibition Average” value (various kinases [6]) was 0% and the “% Inhibition Duplicate #1” value (various kinases [6]) was -1%. For the same compound, the “% Inhibition Duplicate #2” value (various kinases [6]) was 2%, the “% Inhibition” value (various kinases [7]) was 7% and 2% and the “% Inhibition” value (various kinases [8]) was 7%. The “% Inhibition Average” value (various kinases [9]) was 3%, the “% Inhibition Duplicate #1” value (various kinases [9]) was 3% and the “% Inhibition Duplicate #2” value (various kinases [9]) was 3%. For the same compound, the “% Inhibition” value (various kinases [10]) was -2% and 3%, the “% Inhibition” value (various kinases [11]) was -1% and 2% and the “% Inhibition” value (various kinases [12]) was 8% and 5%. The “% Inhibition” value (various kinases [13]) was 4%, the “% Inhibition” value (various kinases [14]) was 1% and the “% Inhibition Average” value (various kinases [15]) was -2%. The “% Inhibition Duplicate #1” value (various kinases [15]) was -8%, the “% Inhibition Duplicate #2” value (various kinases [15]) was 4% and the “% Inhibition Average” value (various kinases [16]) was 3%. For the same compound, the “% Inhibition Duplicate #1” value (various kinases [16]) was 4%, the “% Inhibition Duplicate #2” value (various kinases [16]) was 2% and the “% Inhibition” value (various kinases [17]) was 11%. For the same compound, the “% Inhibition” value (various kinases [18]) was 16% and 12%, the “% Inhibition” value (various kinases [19]) was 6% and 3% and the “% Inhibition” value (various kinases [20]) was 2% and 0%. For the same compound, the “% Inhibition” value (various kinases [21]) was 7% and -3%, the “% Inhibition Average” value (various kinases [22]) was 3% and the “% Inhibition Duplicate #1” value (various kinases [22]) was 4%. The “% Inhibition Duplicate #2” value (various kinases [22]) was 2%, the “% Inhibition” value (various kinases [23]) was 10% and 11% and the “% Inhibition” value (various kinases [24]) was 11% and 16%. The “% Inhibition” value (various kinases [25]) was -3% and 2%, the “% Inhibition” value (various kinases [26]) was 9% and 11% and the “% Inhibition” value (various kinases [27]) was 25% and 24%. The “% Inhibition” value (various kinases [28]) was 5% and 11%, the “% Inhibition” value (various kinases [29]; AMPK (A1/B2/G2)) was 25% and 20% and the “% Inhibition” value (various kinases [29]; AMPK (A1/B2/G3)) was 13% and 21%. The “% Inhibition” value (various kinases [29]; AMPK A1/B1/G1) was 14% and 9%, the “% Inhibition” value (various kinases [30]) was 10% and 4% and the “% Inhibition” value (various kinases [31]) was 4% and -2%. The “% Inhibition” value (various kinases [32]) was 10% and 9%.
